Measurements reported in US8119638B2, “Compositions and uses of ET743 for treating cancer” (Pharma Mar, S.A., priority 2007, dated 2012).
Entries after “also recorded” stand apart in the source; their conditions may differ. Where two headings read alike, the source gives them in different places.

Columns and labels:
[1] = tested on: advanced/metastatic soft tissue sarcoma (STS) and gastrointestinal stromal tumor (GIST); assay: Example 1: trials with 24 h iv continuous infusion every 3 or 4 weeks in STS and GIST patients; assay type: in vivo, human; parameters: tolerability of treatment / safety/toxicities observed: dose or concentration left out as unconfirmed; conditions: for evaluable patients with stable disease or minor responses: after 2 cycles of therapy
[2] = tested on: sc B 16 tumor; assay: sc B 16 tumor model in male rats, dexamethasone pre-treatment plus ET743; conditions: Day 14, q2dx5, iv; for Vol. (tumor volume): preliminary results
Description: The sc B 16 tumor model in male rats was used to compare dexamethasone pre-treated (3 mg/kg total dose; −15 min.), ET743 (90 μg/kg TD) animals to ET alone on a q2dx5, iv, schedule.

[3] = tested on: advanced/metastatic soft tissue sarcoma; assay: Example 3: trial with 24 h iv continuous infusion every 3 weeks in pretreated sarcoma patients; assay type: in vivo, human; conditions: 34 evaluable patients
[4] = tested on: advanced and/or metastatic cancers refractory to previous treatments; conditions: cited from earlier work
[5] = tested on: xenografts of breast cancer, non-small cell lung, melanoma and ovarian cancer; conditions: cited from earlier work
[6] = tested on: advanced/metastatic breast cancer; assay: Example 2: trial with 24 h iv continuous infusion every 3 weeks in pretreated breast cancer patients; assay type: in vivo, human
Description: Data was analyzed from a trial with 24 h iv continues infusion of ET 743 every 3 weeks on 20 pretreated advanced/metastatic breast cancer patients, at a dose level of 1500 μg/m^2.
all presenting measurable disease and progressing at study entry age 33 to 64 years (median 50 yrs)
performance status 0-1 (ECOG criteria)
[…] number of involved organs: 2 (range 1-6)

[7] = tested on: advanced/metastatic soft tissue sarcoma; assay: Example 3: trial with 24 h iv continuous infusion every 3 weeks in pretreated sarcoma patients; assay type: in vivo, human
Description: Data was analyzed from a trial with 24 h iv continues infusion of ET 743 every 3 weeks on 20 pretreated advanced/metastatic soft tissue sarcoma patients, with all except two patients being treated at a dose level of 1500 μg/m^2
35 Soft tissue sarcoma (STS)
22 patients had bulky disease at study entry, with 56% of disease progression under prior regime
age 16 to 71 years (median 45 yrs)
performance status 0 (0-2) (ECOG criteria)
[…] number of prior chemotherapy treatments 2 (1-7)
Most patients had received as prior chemotherapy treatments Anthracyclines and alkylators

[8] = for recommended dose level (RD): patients
Text: The method consists of administration of drug by intravenous infusion over a period of 72 hrs or less at the recommended dose level (RD) with or without combination with other therapeutic agents.
The Recommended Dose (RD) is the highest dose which can be safely administered to a patient producing tolerable, manageable and reversible toxicity according to the Common Toxicity Criteria established by the National Cancer Institute (USA), with no more than 2 out of 6 patients presenting any dose limiting toxicities (DLT). Guidelines for cancer therapy frequently call for administration of chemotherapeutic agents at the highest safe dose at which toxicity is manageable in order to achieve maximum efficacy (DeVita, V. T. Jr., Hellman, S, and Rosenberg, S. A., Cancer: Principles and Practice of Oncology, 3rd ed., 1989, Lipincott, Philadelphia).

[9] = tested on: advanced and/or metastatic cancers refractory to previous treatments; assay: Clinical trials using the method of the invention: plasma levels and objective responses; assay type: in vivo, human
Description: The administration is performed in cycles, in the preferred application method, an intravenous infusion of ET734 is given to the patients the first week of each cycle, the patients are allowed to recover for the remainder of the cycle. The preferred duration of each cycle is of either 3 or 4 weeks; multiple cycles can be given as needed. The drug may also be administered each of the first days of each cycle. Dose delays and/or dose reductions and schedule adjustments are performed as needed depending on individual patient tolerance of treatments, in particular does reductions are recommended for patients with higher than normal serum levels of liver transaminases or alkaline phosphatase, or bilirubin.
Definitions for patient responses are adopted from WHO Common Toxicity Criteria and the responses determined following standard medical practice in the field.

[10] = 56 cycles administered, 1500 μg/m^2 24 h infusion every 3 weeks
[11] = 24 h iv continuous infusion every 3 or 4 weeks

With `C[C@@H]1C[C@H]2[C@@H]3CCC4=CC(=O)C=C[C@]4(C)[C@@]3(F)[C@@H](O)C[C@]2(C)[C@@]1(O)C(=O)CO` [DEX, dexamethasone] the nausea ([1]; dexamethasone as a prophylactic anti emetic with ET 743 24 h infusion) was “essentially eliminated”, the “BW (body weight)” value [2] was 217 grams and the “Vol. (tumor volume)” value [2] was 17,252 mm^3.
For `COc1cc2c(cc1O)CCN[C@]21CS[C@@H]2c3c(OC(C)=O)c(C)c4c(c3[C@H](COC1=O)N1[C@@H]2[C@H]2c3c(cc(C)c(OC)c3O)C[C@@H]([C@@H]1O)N2C)OCO4` [ET743, ecteinascidin 743], the “disease stabilizations (number)” value [3] was 11, the “duration of most disease stabilizations” value [3] was no less than 3 months and the “minor responses (number)” value [3] was 3. The “minor responses which became post surgical complete response” value [3] was “one”, the “partial responses (number)” value [3] was 4 and the “partial responses (percent)” value [3] was 11.7%. For the same compound, the “partial responses which became post surgical complete response” value [3] was “two”, the “patient response (case reported in June 98)” value ([4]; breast cancer, dose level of 1800 microgram m2) was “breast cancer response” and the “patient response (previously reported case)” value ([4]; melanoma patient, 1 hr infusion) was “response in a melanoma patient”. The “action in animal models” value [5] was “promising action”, the “patients achieving disease stabilization” value ([6]; 16 evaluable patients) was “Six” and the “partial responses (number of patients)” value ([6]; 16 evaluable patients, pleuropulmonary and thoracic skin involvement, no primary resistance to either pretreatment drug) was “Two”. For the same compound, the “Asthenia (grade 2/3), number reported per cycle” value [6, 10] was 13, the “Asthenia (grade 2/3), reported per cycle (percent)” value [6, 10] was 23% and the “Neutropenia, grade 3 or 4 toxicities reported per cycle (percent)” value [6, 10] was 50%. The “Neutropenia, number of grade 3 or 4 toxicities reported per cycle” value [6, 10] was 25, the “Reversible transaminitis, grade 3 or 4 toxicities reported per cycle (percent)” value [6, 10] was 60% and the “Reversible transaminitis, number of grade 3 or 4 toxicities reported per cycle” value [6, 10] was 34. For the same compound, the “Thrombocytopenia, grade 3 or 4 toxicities reported per cycle (percent)” value [6, 10] was 2%, the “Thrombocytopenia, number of grade 3 or 4 toxicities reported per cycle” value [6, 10] was 4 and the “patients with sustained decrease in CA 15-3” value ([6]; among the stabilized patients) was “two”. The “Acute, reversible transaminitis, grade 3 or 4 toxicities reported per cycle” value ([7]; 137 cycles administered) was 44%, the “Asthenia (grade 2/3), number reported per cycle” value ([7]; 137 cycles administered) was 13 and the “Asthenia (grade 2/3), reported per cycle (percent)” value ([7]; 137 cycles administered) was 23%. The “Thrombocytopenia, grade 3 or 4 toxicities reported per cycle” value ([7]; 137 cycles administered) was 5%, the “febrile neutropenia, grade 3 or 4 toxicities reported per cycle” value ([7]; 137 cycles administered) was 6.5% and the “Neutropenia, grade 3 or 4 toxicities reported per cycle” value ([7]; 137 cycles administered, 1500 μg/m^2 24 h infusion every 3 weeks) was 34%. The “responses in osteo sarcomas” value ([7]; osteo sarcoma patients) was 2 out of 3, the “recommended dose level (RD)” value ([8]; 3 hr intravenous infusions) was 1650 microgram per m2 body surface area and the “recommended dose level (RD)” value ([8]; 3 hr intravenous infusions, listed as ET-743) was 1650 microgram per m2 body surface. The “recommended dose level (RD)” value ([8]; 24 hr intravenous infusions) was 1500 microgram per m2 of body surface area, the “dose limiting toxicities (DLTs)” value ([8]; human, in vivo) was “myelosuppression and malaise” and the “doses with too large a fraction of patients presenting DLT, too toxic for safe administration” value ([8]; human, in vivo) was no less than 1800 microgram per m2. The “patients presenting severe dose limiting toxic responses” value ([8]; human, in vivo) was 2 out of 4, the “therapeutic window / toxicity” value ([8]; human, in vivo) was “positive therapeutic window with manageable toxicity” and the “RD for this schedule” value ([8]; intravenous infusion over 5 consecutive days, 24 hr daily) was 1625 microgram per m2 of body surface area. For the same compound, the “RD for this schedule” value ([8]; intravenous infusion over 72 hr) was 1050 microgram per m2 of body surface area, the objective responses ([9]; advanced and/or metastatic cancers refractory to previous treatments: soft tissue, bone and gastrointestinal stromal sarcoma, breast cancer and melanoma) was “Objective responses were obtained” and the clinical marker response ([9]; ovarian cancer) was “positive clinical marker response”. For the same compound, the plasma levels ([9]; patients at RD) was “appropriate plasma levels were achieved”, the activity ([9]; variety of suboptimal schedules, advanced ocular melanoma and mesothelioma) was “Evidence of activity” and the safety/toxicities observed [1, 11] was “Myelosuppression; also recorded: Temporary/asymptomatic transaminitis; also recorded: Fatigue”. The tolerability of treatment [1, 11] was “very good”, the “evaluable patients with stable disease or minor responses” value ([1]; STS patients with prior chemotherapy treatment) was 4 out of 12 and the “evaluable patients with stable disease or minor responses” value ([1]; STS patients without any prior chemotherapy treatment) was 6 out of 10. The activity by histology ([1]; liposarcoma, leiomyo sarcoma, and synovial sarcoma) was “preliminary evidence of activity” and the “Vol. (tumor volume)” value [2] was 15,243 mm^3.
